Source: patent US4816472A, “Derivatives of 19,20-Bis-nor-prostanoic acid with antiulcer and anorectic activity, process for their preparation and pharmaceutical compositions thereof” (Istituto Biochemico Italiano Giovanni Lorenzini S.p.A., priority 1985, dated 1989)

How the values were obtained:
[1] = tested on: NaOH induced ulcers in the rat; assay: Sodium hydroxide induced ulcers in the rat; assay type: in vivo
Description: (§1) The anitulcer activity of these derivatives was evaluated on ulcers induced by the administration of ethanol, hydrochloric acid and sodium hydroxide in the rat, also on gastric ulcers induced by aspirin in the rat, and on their influence on gastric secretions in the rat.
(3) Sodium hydroxide induced ulcers in the rat:
Also this test is performed in accordance with the method described by A. Robert et al, in Gastroenterology, 77,433 (1979), the disclosure of which is incorporated herein by reference.

[2] = tested on: aspirin-induced ulcers in the rat; assay: Aspirin induced gastric ulcers in the rat; assay type: in vivo; conditions: 200 mg/kg of drug
Description: as §1
(4) Aspirin induced gastric ulcers in the rat:
For carrying out this test, the method described by H. A. Carmichael, L. M. Nelson, R. I. Russel in Gastroenterology 74, 1229 (1978) is used, the disclosure of which is incorporated herein by reference.

[3] = tested on: gastric secretion in the rat; assay: Gastric secretion in the rat; assay type: in vivo, Sprague-Dawley rats
Description: as §1
(5) Gastric secretion in the rat:
Sprague-Dawley rats of both sexes are used for this test. The gastric secretion is rated according to the method described by H. Shay et al in Gastroenterology 5,43 (1945) the disclosure of which is incorporated herein by reference.

[4] = tested on: gastric depletion in the rat; assay: Gastric depletion in the rat; assay type: in vivo
Description: Gastric depletion in the rat.
Rats of both sexes and mean weight of 180-200 g are used. The animals are subjected to fasting for 24 hours but have free access to water up to 3 hours prior to the test.
Preparation of phenyl red solution: 50 mg of phenyl red is mixed with 100 ml of a 1.5% methyl cellulose solution and shaken for 5 hours.
1.5 ml per rat is administered irrespective of weight.
The rats are sacrificed by cervix translocation: the stomach is taken out after ligaturing the cardias and pilorus.
The entire stomach and contents are placed in the container of a homogenizer with 50 ml of 0.1N NaOH. They are homogenized for 2 minutes at a maximum velocity. They homogenate is transferred to a test-tube and left to settle for one hour.
5 ml of the supernatant is taken out and put into a centrifuge tube and mixed with 0.5 ml of 20% (w/v) trichloroacetic acid. The tube is centrifuged at 2500 rpm for 20 min. The entire supernatant is taken and mixed with 4 ml of 0.4N NaOH, and its absorbance is measured at 560λ.
Gastric depletion is calculated according to the following formula:
(1-sample absorbance/standard absorbance)×100
As "standard absorbance" is considered the mean value of spectophotometric measurement of 4 animals sacrificed immediately after administering phenyl red.

CCCCCCC1CCC(O)C1CCCCCCC(=O)O (stereo not drawn) [drawing 25]
Percent inhibition of NaOH induced ulcers in the rat ([1]; 50 mg/kg): 53%
Percent inhibition of NaOH induced ulcers in the rat ([1]; 100 mg/kg): 84%
Percent inhibition of NaOH induced ulcers in the rat ([1]; 200 mg/kg): 92%

CCCCCCC1CCC(N)C1CCCCCCC(=O)O (stereo not drawn) [drawing 26]
Percent inhibition of aspirin-induced ulcers in the rat [2]: 72%

CCCCCCC1CCC(NC)C1CCCCCCC(=O)O (stereo not drawn) [drawing 27]
Percent inhibition of aspirin-induced ulcers in the rat [2]: 87%

CCCCCCC1CCC(N(C)C)C1CCCCCCC(=O)O (stereo not drawn) [drawing 28]
Percent inhibition of aspirin-induced ulcers in the rat [2]: 88%

CCCCCCC1CCC(NC(C)C)C1CCCCCCC(=O)O (stereo not drawn) [drawing 29]
Percent inhibition of aspirin-induced ulcers in the rat [2]: 63%

CCCCCCC1CCC(NC(C)=O)C1CCCCCCC(=O)O (stereo not drawn) [drawing 30]
Percent inhibition of aspirin-induced ulcers in the rat [2]: 58%

CCCCCCC1CCC(O)C1CCCCCCC(=O)O (stereo not drawn) [drawing 31]
Percent inhibition of aspirin-induced ulcers in the rat [2]: 64%

CCCCCCC1CCC(N)C1CCCCCCC(=O)O (stereo not drawn) [drawing 32]
Percent inhibition of gastric secretion in the rat ([3]; 12.5 mg/kg, 2 h after treatment): 38%
Percent inhibition of gastric secretion in the rat ([3]; 25 mg/kg, 2 h after treatment): 87%
Percent inhibition of gastric secretion in the rat ([3]; 50 mg/kg, 2 h after treatment): 88%
Percent inhibition of gastric secretion in the rat ([3]; 50 mg/kg, 4 h after treatment): 68%
Percent inhibition of gastric secretion in the rat ([3]; 100 mg/kg, 2 h after treatment): 77%
Percent inhibition of gastric secretion in the rat ([3]; 100 mg/kg, 4 h after treatment): 89%

CCCCCCC1CCC(NC)C1CCCCCCC(=O)O (stereo not drawn) [drawing 33]
Percent inhibition of gastric secretion in the rat ([3]; 25 mg/kg, 2 h after treatment): 0%
Percent inhibition of gastric secretion in the rat ([3]; 25 mg/kg, 4 h after treatment): 40%
Percent inhibition of gastric secretion in the rat ([3]; 50 mg/kg, 2 h after treatment): 54%
Percent inhibition of gastric secretion in the rat ([3]; 50 mg/kg, 4 h after treatment): 49%
Percent inhibition of gastric secretion in the rat ([3]; 100 mg/kg, 2 h after treatment): 79%
Percent inhibition of gastric secretion in the rat ([3]; 100 mg/kg, 4 h after treatment): 66%

CCCCCCC1CCC(N(C)C)C1CCCCCCC(=O)O (stereo not drawn) [drawing 34]
Percent inhibition of gastric secretion in the rat ([3]; 25 mg/kg, 2 h after treatment): 74%
Percent inhibition of gastric secretion in the rat ([3]; 25 mg/kg, 4 h after treatment): 23%
Percent inhibition of gastric secretion in the rat ([3]; 50 mg/kg, 2 h after treatment): 75%
Percent inhibition of gastric secretion in the rat ([3]; 50 mg/kg, 4 h after treatment): 55%
Percent inhibition of gastric secretion in the rat ([3]; 100 mg/kg, 2 h after treatment): 82%
Percent inhibition of gastric secretion in the rat ([3]; 100 mg/kg, 4 h after treatment): 63%

CCCCCCC1CCC(NC(C)C)C1CCCCCCC(=O)O (stereo not drawn) [drawing 35]
Percent inhibition of gastric secretion in the rat ([3]; 25 mg/kg, 2 h after treatment): 35%
Percent inhibition of gastric secretion in the rat ([3]; 25 mg/kg, 4 h after treatment): 0%
Percent inhibition of gastric secretion in the rat ([3]; 50 mg/kg, 2 h after treatment): 56%
Percent inhibition of gastric secretion in the rat ([3]; 50 mg/kg, 4 h after treatment): 46%
Percent inhibition of gastric secretion in the rat ([3]; 100 mg/kg, 2 h after treatment): 37%
Percent inhibition of gastric secretion in the rat ([3]; 100 mg/kg, 4 h after treatment): 54%

CCCCCCC1CCC(NC(C)=O)C1CCCCCCC(=O)O (stereo not drawn) [drawing 36]
Percent inhibition of gastric secretion in the rat ([3]; 25 mg/kg, 2 h after treatment): 51%
Percent inhibition of gastric secretion in the rat ([3]; 25 mg/kg, 4 h after treatment): 0%
Percent inhibition of gastric secretion in the rat ([3]; 50 mg/kg, 2 h after treatment): 48%
Percent inhibition of gastric secretion in the rat ([3]; 50 mg/kg, 4 h after treatment): 12%
Percent inhibition of gastric secretion in the rat ([3]; 100 mg/kg, 2 h after treatment): 70%
Percent inhibition of gastric secretion in the rat ([3]; 100 mg/kg, 4 h after treatment): 59%

CCCCCCC1CCC(O)C1CCCCCCC(=O)O (stereo not drawn) [drawing 37]
Percent inhibition of gastric secretion in the rat ([3]; 25 mg/kg, 2 h after treatment): 0%
Percent inhibition of gastric secretion in the rat ([3]; 25 mg/kg, 4 h after treatment): 15%
Percent inhibition of gastric secretion in the rat ([3]; 50 mg/kg, 2 h after treatment): 30%
Percent inhibition of gastric secretion in the rat ([3]; 100 mg/kg, 2 h after treatment): 50%
Percent inhibition of gastric secretion in the rat ([3]; 100 mg/kg, 4 h after treatment): 45%

CCCCCCC1CCC(N)C1CCCCCCC(=O)O (stereo not drawn) [drawing 38]
inhibition values of gastric depletion ([4]; 25 mg/kg): 18%
inhibition values of gastric depletion ([4]; 50 mg/kg): 80%
inhibition values of gastric depletion ([4]; 100 mg/kg): 80%

CCCCCCC1CCC(NC)C1CCCCCCC(=O)O (stereo not drawn) [drawing 39]
inhibition values of gastric depletion ([4]; 50 mg/kg): 33%

CCCCCCC1CCC(N(C)C)C1CCCCCCC(=O)O (stereo not drawn) [drawing 40]
inhibition values of gastric depletion ([4]; 50 mg/kg): 55%

CCCCCCC1CCC(NC(C)C)C1CCCCCCC(=O)O (stereo not drawn) [drawing 41]
inhibition values of gastric depletion ([4]; 50 mg/kg): 14%

CCCCCCC1CCC(NC(C)=O)C1CCCCCCC(=O)O (stereo not drawn) [drawing 42]
inhibition values of gastric depletion ([4]; 50 mg/kg): 78%
